These results are taken from patent US20220323443A1, “COMBINATION THERAPY FOR CANCER TREATMENT” (TAKEDA PHARMACEUTICAL COMPANY LIMITED, priority 2019, published 2022).

Read-outs that look alike come from different tables or passages of the source.

For assay [1], the system named is PHTXS-13O human primary ovarian cancer xenografts. Briefly: In vivo combination study, Patient Derived Xenograft. Further details: species or system mouse. The following applies: for Result (combination with Compound 1, tumor growth): PHTXS-13O (170 mm^3) FIG. 4A. How it is done:
To investigate in vivo antitumor activity of Compound 1 in combination with other agents, tests using Cell Derived Xenograft (CDX), Patient Derived Xenograft (PDX) and Syngeneic mouse tumor isograft model were conducted. Cells or Patient Derived Tumors were inoculated by one method of the following two methods (Method A and B) as shown Table 7.
Method A; Cells were maintained in either immune deficient nude mice or immune competent mice by subcutaneous inoculation of tumor cells at various concentrations into respected mice. Method B: Patient Derived Tumor s were maintained in nude mice by subcutaneous inoculation of tumor pieces (approx. 2×2×2 mm) into nude mice. Mice with tumor size of approximately 50 mm^3 (e.g., 40-75 mm^3) for syngeneic mouse studies or 200 mm^3 (e.g., 110-270 mm^3) for xenograft studies were randomly assigned to dose groups on the day (Day 0) before start date of dosing.
Compound 1 (crystalline form I) was suspended in 0.5 w/v % methylcellulose and administered orally to mice. Antibodies which administered in the experiment were described in Table 8.
Tumor size was measured by caliper and tumor volume was estimated using the equation V=(LW^2)/2, where L and W are tumor length and width, respectively and reported in cubic millimeters.
These values were compared across treatment groups to assess whether the differences in the trends over time were statistically significant. To compare pairs of treatment groups, the following mixed-effects linear regression model was fit to the data using the maximum likelihood method:
For synergy analyses, the observed differences in the log tumor values were used to calculate AUC values for each animal. In instances when an animal in a treatment group was removed from the study, the last observed tumor value was carried forward through all subsequent time points. The AUC for the control, or vehicle, group was calculated using the predicted values from the pairwise models described above. We defined a measure of synergy as follows:
where Ak and Bk are the k^th animal in the individual treatment groups and ABk is the k^th animal in combination treatment group. AUCcd is the model-predicted AUC for the control group and was treated as a constant with no variability. The standard error of the synergy score was calculated as the square root of the sum of squared standard errors across groups A, B, and AB. The degrees of freedom were estimated using the Welch-Satterthwaite equation. A hypothesis test was performed to determine if the synergy score differed from 0. P values were calculated by dividing the synergy score by its standard error and tested against a t-distribution (two-tailed) with the above-calculated degrees of freedom.
The effect was classified into four different categories. It was considered synergistic if the synergy score was less than 0 and additive if the synergy score wasn't statistically different from 0. If the synergy score was greater than zero, but the mean AUC for the combination was lower than the lowest mean AUC among the two single agent treatments, then the combination was sub-additive. If the synergy score was greater than zero, and the mean AUC for the combination was greater than the mean AUC for at least one of the single agent treatments, then the combination was antagonistic.
(Xenograft models place foreign cells or tissue in a host animal.)

For another assay, the system named is H460 cancer cells. Briefly: In vitro combination study with Compound 1, Cell Titer-Glo (ATP) cell viability, 72 h. The assay is classed as cell-based.
For another assay, the system named is SW48 cancer cells. The description is as above. The assay is classed as cell-based.
The next assay relates to CALU6 (Lung). Briefly: In vitro combination study for selected compounds, additional cell lines. The assay is classed as cell-based. The following applies: drug combined with Compound 1. How it is done:
(§1) In vitro anti-proliferative effects of selected compounds were tested in additional cell lines, including ovarian cancer (SKOV3) and pancreatic cancer (MIA-PACA-2) cell lines.

The test system of a further assay is H-1650 (Lung). The assay is described as above. The format is cell-based. To be noted: drug combined with Compound 1. How it is done: as §1
For another assay, the system named is HCT116 cancer cells. Briefly: In vitro combination study with Compound 1, Cell Titer-Glo (ATP) cell viability, 72 h. The format is cell-based. (In general: In ATP-based viability assays light output follows the ATP content of the culture.)
The test system of a further assay is SW620 cancer cells. Described as above. The format is cell-based.
In assay [2] the test system is ovarian cancer (SKOV3) cell line. Briefly: In vitro combination study for selected compounds, additional cell lines. The assay is classed as cell-based. The following applies: drug combined with Compound 1. As for the experimental part: as §1
A further assay has as its system COLO205 cancer cells. Briefly: In vitro combination study with Compound 1, Cell Titer-Glo (ATP) cell viability, 72 h. The format is cell-based, human.
In a further assay the test system is A549 cancer cells. Described as above. The assay is classed as cell-based.
The mark [3] stands for this setting: DNA damaging agent combined with Compound 1, 72 h.
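Wherever Call, anti-proliferative effect of combination with Compound 1, A549 is given: Ten-by-ten dose matrices of the two agents in duplicate, compounds added 16 h post-plating, activity relative to DMSO vehicle wells, call reflects synergy evaluation from luminescence.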
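Wherever Call, anti-proliferative effect of combination with Compound 1, COLO205 is given: Ten-by-ten dose matrices of both agents in duplicate plus single-agent dilutions, luminescent ATP read-out, percent activity per well relative to DMSO vehicle wells, synergy call from these matrices.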
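Wherever Call, anti-proliferative effect of combination with Compound 1, H460 is given: Ten-by-ten dose matrices of both drugs alongside single-agent dilutions, luminescence read 72 hours after compound addition, percent activity per well versus vehicle (DMSO) plate controls.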
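Wherever Call, anti-proliferative effect of combination with Compound 1, HCT116 is given: combination call from 10×10 dose matrices in duplicate, graded by synergy, with percent activity per well relative to DMSO vehicle controls on the same plate.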
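Wherever Call, anti-proliferative effect of combination with Compound 1, SW620 is given: Ten-by-ten dose matrices of both drugs in 384-well plates, luminescent ATP read-out, synergy evaluated against single-agent and DMSO vehicle controls.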

Procedure for COLO205 cancer cells: (§2) Each combination pair was evaluated in an individual 384-well plate which contained variable doses of both compounds as single agents, as well as two, ten-by-ten matrices (in duplicate) that contained mixtures of the two test compounds. In brief, compounds were added to the cell test plates 16 hours after cell plating and then assessed for viability 72 hours later. Continuous cultures of tumor cells were maintained under standard cell culturing conditions (i.e. in a humidified chamber set at 37° C., containing atmosphere 5% carbon dioxide). […] Seventy-two hours after compound addition, ATP levels were measured to assess cell viability. Plating densities were chosen to ensure optimal linear growth over the 72 hour period.
(§3) Compound dilution and compound delivery to the assay plates were done on HighRes Robotic System (HighRes Biosolutions, Woburn, Mass., USA) with Echo™ Liquid Handler (Labcyte, Sunnyvale, Calif., USA). […] Next, these were used for compound transfer into cell assay plates. All wells were back-filled to give a constant percentage of DMSO.
(§4) The final DMSO concentration was held constant in all wells across the plate and was maintained at less than 0.5%. […] Cells treated with vehicle (DMSO) in two rows, or single compound serial dilutions in one plate columns/row served as the untreated control and single compound controls, respectively.
(§5) Compound activity in A549, COLO205, H460, HCT116, SW48, SW620 cancer cell lines was assessed using Cell Titer-Glo® (Promega [Madison, Wis., USA]). After 72 hours incubation, the plates were treated as per package insert protocol for the Promega Luminescence ATP Detection Systems. Briefly, 25 μL of cell lysis/substrate solution (provided in kit form) was added to each well and the plate was incubated at room temperature for 10 minutes. Luminescence was measured using a PHERAstar multi-label counter (BMG Labtech [Ortenberg, Germany]) or LEADseeker (GE Healthcare Life Sciences [Piscataway, N.J., USA]).
(§6) Numerical luminescence values were analyzed to generate EC50 curves and evaluate synergy. Raw Data reader files were uploaded along with automation workfiles that defined the plate and well contents. Percent activities were calculated for each well versus plate controls.
(§7) Each plate representing a single drug combination was analyzed separately. First, the viability measurements were normalized by scaling the data so that the median of the negative controls was 0 and the median of the positive controls was 100.
(§8) For the combination analysis, a response surface model was used to describe the relationship between the normalized viability and the drug concentrations. The data were fit to the model by minimizing the residual sum of squares. Based on the fitted response surface, plots of constant viability, called isobolograms, were produced.
(§9) The Combination Index and Nonlinear Blending were used as measures of drug synergy. To calculate Combination Index the 50% isobologram (which is the dose contour that has 50% viability) was used. […] A standard procedure was created to produce a call in order to characterize the viability effects for each combination (synergy, additivity, subadditivity, or antagonism). If the Combination Index existed then these measures were used to make the call.
Procedure for SW48 cancer cells: as §2
Compound dilution and compound delivery to the assay plates were done on HighRes Robotic System (HighRes Biosolutions, Woburn, Mass., USA) with Echo™ Liquid Handler (Labcyte, Sunnyvale, Calif., USA). First, 384-well low dead volume (LDV) plates containing DMSO (Appendix B) and 10 mM compound stock solutions were used to create the required intermediate compound dilution plates. Next, these were used for compound transfer into cell assay plates. All wells were back-filled to give a constant percentage of DMSO.
as §4, §5, §6, §7, §8, §9
Procedure for SW620 cancer cells: as §2, §3, §4, §5, §6, §7, §8, §9

With `N.N.O=C([O-])C1(C(=O)[O-])CCC1.[Pt+2]` [Carboplatin], the “Result (combination with Compound 1, tumor growth)” value in [1] (Compound 1 40 mg/kg once daily Day 1-14, drug 30 mg/kg intraperitoneally Days 1,5,9,13) is listed as “Additive”; in [1] (Compound 1 40 mg/kg once daily Day 1-14, drug 50 mg/kg intraperitoneally Days 1,5,9,13), “Additive”; in assay [1] (Compound 1 60 mg/kg once daily Day 1-14, drug 30 mg/kg intraperitoneally Days 1,5,9,13), “Additive”; in assay [1] (Compound 1 60 mg/kg once daily Day 1-14, drug 50 mg/kg intraperitoneally Days 1,5,9,13), “Additive”. In [1] (combined with Compound 1, PHTXS-13O human primary ovarian cancer xenografts, FIG. 4A), the antitumor activity entry is “strong antitumor activity compared to either single treatment alone”. In the assay with H460 cancer cells (setting [3]), the “Call, anti-proliferative effect of combination with Compound 1, H460” value (shortened to “Call, anti-proliferative effect … H460”) is listed as “Synergy (0 to 0.7)”. Moreover, in the assay with SW48 cancer cells (setting [3]), the “Call, anti-proliferative effect of combination with Compound 1, SW48” value (from here on “Call, anti-proliferative effect … SW48”) is “Additivity (0.7 to 1.3)”. In addition, in the assay with CALU6 (Lung), the “In vitro combination effect with Compound 1, Lung CALU6” value was “Additive”. For the same molecule, the “In vitro combination effect with Compound 1, Lung H-1650” value in the assay on H-1650 (Lung) is “Additive”. Moreover, the “Call, anti-proliferative effect of combination with Compound 1, HCT116” value (“Call, anti-proliferative effect … HCT116” for short) with HCT116 cancer cells (setting [3]) is “Synergy (0 to 0.7)”.

`N.N.[Cl][Pt][Cl]` [Cisplatin]: the “Call, anti-proliferative effect of combination with Compound 1, SW620” value (shortened to “Call, anti-proliferative effect … SW620”) in the assay on SW620 cancer cells (setting [3]) is “Synergy (0 to 0.7)”. In the assay with H460 cancer cells (setting [3]), the “Call, anti-proliferative effect … H460” value is listed as “Synergy (0 to 0.7)”. In addition, the “Call, anti-proliferative effect … SW48” value in the assay on SW48 cancer cells (setting [3]) was “Additivity (0.7 to 1.3)”. Also, the “In vitro combination effect with Compound 1, Lung CALU6” value in the assay on CALU6 (Lung) is “Additive”. In addition, in the assay on H-1650 (Lung), the “In vitro combination effect with Compound 1, Lung H-1650” value is “Additive”. In [2], the “In vitro combination effect with Compound 1, Ovary SKOV3” value is “Additive”. The “Call, anti-proliferative effect … HCT116” value in the assay on HCT116 cancer cells (setting [3]) is given as “Synergy (0 to 0.7)”.

As for `O=C1[O][Pt]2([NH][C@@H]3CCCC[C@H]3[NH]2)[O]C1=O` [Oxaliplatin], the “Call, anti-proliferative effect … SW620” value with SW620 cancer cells is given as “Synergy (key: Inconclusive: Any; Additivity: 0.7 to 1.3; Synergy: 0 to 0.7; Subadditivity: 1.3 to 2; Antagonism: >2)”. Besides, the “Call, anti-proliferative effect of combination with Compound 1, COLO205” value (from here on “Call, anti-proliferative effect … COLO205”) in the assay with COLO205 cancer cells is given as “Synergy (key: Inconclusive: Any; Additivity: 0.7 to 1.3; Synergy: 0 to 0.7; Subadditivity: 1.3 to 2; Antagonism: >2)”. In the assay with H460 cancer cells, the “Call, anti-proliferative effect … H460” value is “Additivity (key: Inconclusive: Any; Additivity: 0.7 to 1.3; Synergy: 0 to 0.7; Subadditivity: 1.3 to 2; Antagonism: >2)”. Also, the “Call, anti-proliferative effect … SW48” value in the assay on SW48 cancer cells is “Additivity (key: Inconclusive: Any; Additivity: 0.7 to 1.3; Synergy: 0 to 0.7; Subadditivity: 1.3 to 2; Antagonism: >2)”. For the same molecule, in the assay with CALU6 (Lung), the “In vitro combination effect with Compound 1, Lung CALU6” value is listed as “Additive”. Further, in the assay on H-1650 (Lung), the “In vitro combination effect with Compound 1, Lung H-1650” value is “Additive”. Moreover, in assay [2], the “In vitro combination effect with Compound 1, Ovary SKOV3” value is recorded as “Additive”. Moreover, the “Call, anti-proliferative effect … HCT116” value in the assay on HCT116 cancer cells is reported as “Additivity (key: Inconclusive: Any; Additivity: 0.7 to 1.3; Synergy: 0 to 0.7; Subadditivity: 1.3 to 2; Antagonism: >2)”.

Consider `CC(=O)O[C@H]1C(=O)[C@@]2(C)[C@H]([C@H](OC(=O)c3ccccc3)[C@]3(O)C[C@H](OC(=O)[C@H](O)[C@@H](NC(=O)c4ccccc4)c4ccccc4)C(C)=C1C3(C)C)[C@]1(OC(C)=O)CO[C@@H]1C[C@@H]2O` [Paclitaxel], for which, in the assay with CALU6 (Lung), the “In vitro combination effect with Compound 1, Lung CALU6” value is on record as “Additive”. Also, in the assay on H-1650 (Lung), the “In vitro combination effect with Compound 1, Lung H-1650” value is recorded as “Antagonism”.

Consider `COc1cc([C@@H]2c3cc4c(cc3[C@@H](O[C@@H]3O[C@@H]5CO[C@@H](c6cccs6)O[C@H]5[C@H](O)[C@H]3O)[C@H]3COC(=O)[C@H]23)OCO4)cc(OC)c1O` [Teniposide], for which the “Call, anti-proliferative effect … SW620” value in the assay on SW620 cancer cells (setting [3]) is reported as “Synergy (0 to 0.7)”. Further, in the assay on A549 cancer cells (setting [3]), the “Call, anti-proliferative effect of combination with Compound 1, A549” value is “Synergy (0 to 0.7)”. Further, the “Call, anti-proliferative effect … COLO205” value in the assay with COLO205 cancer cells (setting [3]) is “Synergy (0 to 0.7)”. In addition, in the assay on H460 cancer cells (setting [3]), the “Call, anti-proliferative effect … H460” value was “Synergy (0 to 0.7)”. Also, in the assay on SW48 cancer cells (setting [3]), the “Call, anti-proliferative effect … SW48” value is on record as “Synergy (0 to 0.7)”. The “Call, anti-proliferative effect … HCT116” value with HCT116 cancer cells (setting [3]) was “Synergy (0 to 0.7)”.

Turning to bleomycin, the “Call, anti-proliferative effect … SW620” value in the assay on SW620 cancer cells is on record as “Additivity (key: Inconclusive: Any; Additivity: 0.7 to 1.3; Synergy: 0 to 0.7; Subadditivity: 1.3 to 2; Antagonism: >2)”. The “Call, anti-proliferative effect of combination with Compound 1, A549” value in the assay with A549 cancer cells is “Additivity (key: Inconclusive: Any; Additivity: 0.7 to 1.3; Synergy: 0 to 0.7; Subadditivity: 1.3 to 2; Antagonism: >2)”. The “Call, anti-proliferative effect … COLO205” value in the assay on COLO205 cancer cells was “Synergy (key: Inconclusive: Any; Additivity: 0.7 to 1.3; Synergy: 0 to 0.7; Subadditivity: 1.3 to 2; Antagonism: >2)”. Moreover, in the assay with H460 cancer cells, the “Call, anti-proliferative effect … H460” value is recorded as “Synergy (key: Inconclusive: Any; Additivity: 0.7 to 1.3; Synergy: 0 to 0.7; Subadditivity: 1.3 to 2; Antagonism: >2)”. In the assay on SW48 cancer cells, the “Call, anti-proliferative effect … SW48” value was “Additivity (key: Inconclusive: Any; Additivity: 0.7 to 1.3; Synergy: 0 to 0.7; Subadditivity: 1.3 to 2; Antagonism: >2)”. The “Call, anti-proliferative effect … HCT116” value with HCT116 cancer cells was “Synergy (key: Inconclusive: Any; Additivity: 0.7 to 1.3; Synergy: 0 to 0.7; Subadditivity: 1.3 to 2; Antagonism: >2)”.
